{"source": "patent US20130071547A1", "about": "“LOW CALORIC FAT REPLACERS” (NESTEC S.A., priority 2009, published 2013)", "key": {"subjects [1]": {"test_system": "subjects", "assay": "2-Alternative forced choice test, which solution tastes fattier (Medica 16, rosiglitazone)", "assay_type": "in vivo, human", "details": "agonist solution vs water, 40 subjects, p<0.05", "protocol": "A correct choice is defined as choosing as fattier the sample containing the test ingredients. Medica 16 and rosiglitazone were assessed independently at three concentration, 10 μM, 50 μM and 100 μM.\nForty subjects were given two solutions one containing the agonist and the other water, and asked which one tastes fattier."}, "subjects [2]": {"test_system": "subjects", "assay": "Description of the sensory attributes of GPR40 agonists by untrained subjects", "assay_type": "in vivo, human", "details": "for SUMMARY of the comments (sensory attributes): eight subjects with nose clips; for sensory attributes described by most participants: 0.5% ethanol solutions, untrained subjects with nose clips; for fatty mouth sensation (overall conclusion of Example 2): conclusion from triangle and descriptive tests", "description": "In a different experiment, untrained subjects were asked to describe the sensory attributes of the agonists. The majority of participants described the molecules as creamy, oily, or providing mouth and lip coating (Tables 2 and 3).\nEight subjects wearing nose clips were presented with 0.5% ethanol solutions containing agonists of GPR40 and asked to describe them."}, "subjects [3]": {"test_system": "subjects", "assay": "2-Alternative forced choice test of the fattiness of 12-Methyltridecanal", "assay_type": "in vivo, human", "protocol": "12-Methyltridecanal was dissolved in 0.5% ethanol in water. Control samples were 0.5% ethanol in water. Three concentrations were tested. For each concentration thirty nine subjects wearing nose clips were presented with one cup containing the compound and one control cup in a random order. The subjects were asked to identify which sample is fattier. The significance level is shown with a solid line.\n2-Alternative forced choice tests were used to test the fattiness of 12-Methyltridecanal. Thirty nine subjects were presented with two cups, one with a solution containing 12-Methyltridecanal and the other vehicle alone. The subjects were wearing nose clips, and were asked which sample is fattier. A significant number of participants found the sample containing the highest concentration of 12-Methyltridecanal fattier (28 out of 39 subjects, p<0.01) (FIG. 5)."}, "wild type Chem1 cells": {"test_system": "wild type Chem1 cells", "assay": "Calcium response of wild type Chem1 cells (control cells)", "assay_type": "cell-based"}, "GPR40 [4]": {"molecular_target": "T1, GPR40 (Homo sapiens, UniProt O14842)", "T1 construct": "expressed in transfected cells; host or cells: Chem-1 (Chem1) cells stably expressing GPR40", "T1 sequence (O14842 whole entry, species assumed)": "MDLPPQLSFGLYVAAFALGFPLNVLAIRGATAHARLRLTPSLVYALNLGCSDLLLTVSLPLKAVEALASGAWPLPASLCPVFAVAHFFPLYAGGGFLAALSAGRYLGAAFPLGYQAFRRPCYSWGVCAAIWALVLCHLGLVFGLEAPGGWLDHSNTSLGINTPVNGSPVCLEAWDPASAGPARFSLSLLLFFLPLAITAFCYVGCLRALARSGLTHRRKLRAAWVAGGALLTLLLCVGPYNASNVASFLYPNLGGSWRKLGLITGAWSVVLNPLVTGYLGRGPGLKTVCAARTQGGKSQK", "assay": "Calcium response of Chem-1 cells stably expressing GPR40 (calcium sensitive dye, Flex station)", "assay_type": "cell-based", "description": "The calcium response of Chem-1 cells stably expressing GPR40 to increasing concentration of 12-Methyltridecanal is shown.\nTo determine if 12-Methyltridecanal is an agonist of GPR40, Chem1 cells stably expressing GPR40 were loaded with a calcium sensitive dye, stimulated with increasing concentrations of 12-Methyltridecanal, and their calcium response measured using a Flex station."}, "GPR40 [5]": {"molecular_target": "T1, GPR40", "details": "cited from earlier work"}, "subjects [6]": {"test_system": "subjects", "assay": "Descriptive information on taste, texture and after taste of compound 20", "assay_type": "in vivo, human", "details": "51.2 μM in 0.5% ethanol, nose clips; for Taste (descriptor: number of subjects): wrapped cell: 'Slightly savoury: 1'; for Texture (descriptor: number of subjects): wrapped cells: 'Slightly viscous: 2', 'Slightly coats the mouth: 2'", "protocol": "Six subjects wearing nose clips were presented with 0.5% ethanol in water (warm up sample) or 51.2 μM compound 20 in 0.5% ethanol (reference sample). Participants were asked to describe, avoiding hedonic terms, the taste, texture and aftertaste of the reference sample. Five out of 6 subjects found texture attributes compatible with the texture of fat."}, "subjects [7]": {"test_system": "subjects", "assay": "Triangle tests with GPR40 agonists (identify the odd sample)", "assay_type": "in vivo, human", "details": "highest concentration tested, 0.5% ethanol in water, nose clips; for participants who correctly identified the odd sample: one compound cup and two control cups; for identification of the sample with the compound as the odd sample (significance): 21 subjects", "protocol": "The GPR40 agonist (Compound 5 or Compound 20) was dissolved in 0.5% ethanol in water. Control samples were 0.5% ethanol in water. Three concentrations for compound 5 and four concentrations for compound 20 were tested. For each concentration twenty one subjects wearing nose clips were presented with one cup containing the compound and two control cups in a random order. The subjects were asked to identify the odd sample. […] The significance level is shown with a dashed line. * p<0.01, ** p<0.0001\nTriangle tests were used with 21 subjects to determine if solutions containing Compound 5 or Compound 20 taste different from solutions with the same vehicle but without compounds. The subjects, wearing nose clips, were presented with three samples in random order, one containing the agonist, and two control solutions, and were asked to identify the odd sample. Eighteen out of 21 participants correctly identified the highest concentration of compound 5 (p<0.0001), and 13 out of 21 correctly identified the highest concentration of Compound 20 (p<0.01) (FIG. 3)."}}, "note": "“Also recorded” adds a separate entry of the source. Where two headings read alike, the source gives them in different places."}
{"smiles": "CC(C)(CCCCCCCCCCC(C)(C)CC(=O)O)CC(=O)O", "note": "[Medica 16]", "values": [{"measurement": "sample with agonist chosen as tasting fattier than control", "setting": "subjects [1]; 50 μM", "result": "significantly chosen as fattier than control solution; also recorded: more subjects found the solution with agonists to taste fattier"}, {"measurement": "sample with agonist chosen as tasting fattier than control", "setting": "subjects [1]; 100 μM", "result": "significantly chosen as fattier than control solution; also recorded: more subjects found the solution with agonists to taste fattier"}]}
{"smiles": "CN(CCOc1ccc(CC2SC(=O)NC2=O)cc1)c1ccccn1", "note": "(stereo not drawn) [Roziglitazone]", "values": [{"measurement": "sample with agonist chosen as tasting fattier than control", "setting": "subjects [1]; 50 μM", "result": "more subjects found the solution with agonists to taste fattier"}, {"measurement": "sample with agonist chosen as tasting fattier than control", "setting": "subjects [1]; 50 μM, listed as rosiglitazone", "result": "significantly chosen as fattier than control solution"}, {"measurement": "sample with agonist chosen as tasting fattier than control", "setting": "subjects [1]; 100 μM", "result": "more subjects found the solution with agonists to taste fattier"}, {"measurement": "sample with agonist chosen as tasting fattier than control", "setting": "subjects [1]; 100 μM, listed as rosiglitazone", "result": "significantly chosen as fattier than control solution"}]}
{"smiles": "CCCCC/C=C\\C/C=C\\CCCCCCCC(=O)O", "note": "[Linoleic acid]", "values": [{"measurement": "SUMMARY of the comments (sensory attributes)", "setting": "subjects [2]; 450 μM in 0.5% ethanol, r7 continues in r8 ('texture.')", "result": "Astringent. Pungent; also recorded: Some mentions on creamy, viscous"}]}
{"smiles": "CC(C)CCCCCCCCCCC=O", "note": "[12-Methyltridecanal]", "values": [{"measurement": "fatty taste effect versus control", "setting": "subjects [3]; 10 μM (lowest concentration), 39 subjects, 0.5% ethanol in water, nose clips", "result": "no significant effect"}, {"measurement": "subjects choosing the sample with the compound as fattier than control (correct choice)", "setting": "subjects [3]; 50 μM, 39 subjects, trend, p<0.05, not significant when taking into consideration multiple testing", "result": 26}, {"measurement": "subjects choosing the sample with the compound as fattier than control", "setting": "subjects [3]; 100 μM (highest concentration), 39 subjects, 0.5% ethanol in water, nose clips, p<0.0087 (p<0.01)", "result": 28, "unit": "subjects"}, {"measurement": "fatty mouth sensation (overall conclusion of Example 2)", "setting": "subjects [3]; conclusion from 2-Alternative forced choice test", "result": "impart a fatty mouth sensation"}, {"measurement": "calcium response to increasing concentrations", "setting": "wild type Chem1 cells", "result": "do not respond; also recorded: did not respond"}, {"measurement": "calcium response to increasing concentrations", "setting": "GPR40 [4]", "result": "clear dose-dependant response"}]}
{"smiles": "Cc1ccccc1C#Cc1ccc(CCC(=O)O)cc1", "note": "[Compound 20]", "values": [{"measurement": "GPR40 agonist activity", "setting": "GPR40 [5]; as described in Christiansen et al, Journal of Medicinal Chemistry, 2008, 51, 7061-7064", "result": "GPR40 agonist activity was demonstrated"}, {"measurement": "subjects who found texture attributes compatible with the texture of fat", "setting": "subjects [6]", "result": "Five"}, {"measurement": "Others (comments)", "setting": "subjects [6]; six subjects, wrapped cell: 'Slightly burning, hot, at the side of the tongue after spitting out.'", "result": "Slightly burning,"}, {"measurement": "Taste (descriptor: number of subjects)", "setting": "subjects [6]; six subjects", "result": "Slightly"}, {"measurement": "Taste (descriptor: number of subjects)", "setting": "subjects [6]; six subjects, no taste noted", "result": "None: 5"}, {"measurement": "After taste (descriptor: number of subjects)", "setting": "subjects [6]; six subjects, wrapped cells: 'Astringent at the back of the throat', 'Bitter - Very slightly'", "result": "None: 3"}, {"measurement": "Texture (descriptor: number of subjects)", "setting": "subjects [6]; six subjects", "result": "Slightly"}, {"measurement": "Texture (descriptor: number of subjects)", "setting": "subjects [6]; six subjects, a bit oily texture", "result": "A bit oily: 1"}, {"measurement": "Texture (descriptor: number of subjects)", "setting": "subjects [6]; six subjects, greasy texture", "result": "Greasy: 2"}, {"measurement": "Texture (descriptor: number of subjects)", "setting": "subjects [6]; six subjects, no texture noted", "result": "None: 1"}, {"measurement": "Texture (descriptor: number of subjects)", "setting": "subjects [6]; six subjects, slightly coats the mouth", "result": "Slightly coats"}, {"measurement": "Texture (descriptor: number of subjects)", "setting": "subjects [6]; six subjects, waxy texture", "result": "Waxy: 1"}, {"measurement": "participants who correctly identified the odd sample", "setting": "subjects [7]", "result": "13 out of 21"}, {"measurement": "identification of the sample with the compound as the odd sample (significance)", "setting": "subjects [7]", "result": "a significant number of subjects were able to identify the sample with the compound as the odd sample"}, {"measurement": "SUMMARY of the comments (sensory attributes)", "setting": "subjects [2]; 51.2 μM in 0.5% ethanol, agreement over most participants on lip coating, creamy", "result": "Coating the lips, creamy; also recorded: Slightly bitter"}, {"measurement": "sensory attributes described by most participants", "setting": "subjects [2]", "result": "agreement from most participants on the creaminess, mouth and lip coating"}, {"measurement": "fatty mouth sensation (overall conclusion of Example 2)", "setting": "subjects [2]", "result": "impart a fatty mouth sensation"}]}
{"smiles": "CC#CC(CC(=O)O)c1ccc(OCc2cc(-c3ccccc3)oc2C)cc1", "note": "(stereo not drawn) [Compound 5]", "values": [{"measurement": "GPR40 agonist activity", "setting": "GPR40 [5]; as described in patent WO2005/086661", "result": "GPR40 agonist activity was demonstrated"}, {"measurement": "participants who correctly identified the odd sample", "setting": "subjects [7]", "result": "Eighteen"}, {"measurement": "identification of the sample with the compound as the odd sample (significance)", "setting": "subjects [7]", "result": "a significant number of subjects were able to identify the sample with the compound as the odd sample"}, {"measurement": "SUMMARY of the comments (sensory attributes)", "setting": "subjects [2]; 40 μM in 0.5% ethanol, agreement over most participants on mouth coating, creaminess", "result": "Bitter; also recorded: Astringent/tingling; also recorded: Slight mouth coating, Creaminess; also recorded: Persistent"}, {"measurement": "sensory attributes described by most participants", "setting": "subjects [2]", "result": "agreement from most participants on the creaminess, mouth and lip coating"}, {"measurement": "fatty mouth sensation (overall conclusion of Example 2)", "setting": "subjects [2]", "result": "impart a fatty mouth sensation"}]}
